Reference: US20260097105A1, “SYSTEMS, FORMULATIONS AND METHODS FOR GENERATING UNIVERSAL PEPTIDE/MHC COMPLEXES WITH ENGINEERED DISULFIDE CONNECTING THE HEAVY AND LIGHT CHAINS” (priority 2022, published 2026)

Key:
MR1 = molecular target: T1, MR1 (Homo sapiens, UniProt Q95460, C283S/G138C); assay: Fluorescence polarization competitive ligand binding (JYM20, DCF-loaded open MR1); details: 10 nM JYM20; 200 nM DCF-loaded open MR1; pH 7.4
T1 construct: made in house; host or cells: Escherichia coli BL21(DE3) per the general methods
Procedure: To optimize fluorescence polarization (FP), a direct binding assay between JYM20 and MR1 was conducted to determine the minimum concentration of MR1 and JYM20 required for a maximal signal, as well as the buffer conditions. The FP signal is generated by polarized excitation wavelengths, resulting in depolarized emission when JYM20 is free in solution (with low FP value). […] Because DCF is not a covalent binding ligand, the DCF-loaded open MR1 and JYM20 can together screen a wide range of cancer metabolites for MR1.
Briefly, a buffer consistent of 150 mM NaCl, 20 mM sodium phosphate, 0.05% Tween-20, pH 7.4 was used since Applicants don't need nonphysiologically acidic environment to break the Schiff base. A serial dilution of cancer metabolites in a range of 60-0.06 mM, which were selected from the preliminary in silico screening, was added to 200 nM MR1 and 10 nM JYM20 in a final volume of 100 μL. The kinetic association was monitored for 16 hours, and polarization measurements were recorded every 186 seconds. Excitation and emission values used to monitor the fluorescence of TAMRA-labeled peptides were 531 and 595 nm. All experiments were performed in triplicates at room temperature. Raw parallel (III) and perpendicular emission intensities (I⊥) were collected and converted to polarization (mP) values using the equation 1000*[(III−(G*I⊥))/(III+(G*I⊥))]. An optimized G-factor was determined to be 0.33 for TAMRA-labeled peptides in calculating baseline fluorescence. Non-linear regression fitting of one phase association allowed calculating plateau polarization (mP) values for each kinetic curve. Log transformed values of each peptide concentration were plotted against the plateau mP value, and an IC50 curve was fit using log (inhibitor) vs. response (three parameters) curve from GraphPad Prism v9^9.

[1] = system: WT or open HLA-A*29:02/FTSDYYQLY; assay: Fluorescence polarization IC50 competition assay; assay type: binding, human; details: competitor vs FITCKLIDVFHQY
From the text: Kinetic association measurements were collected as previously described. Non-linear regression fitting allowed calculating plateau polarization (mP) values for each kinetic curve. Log transformed values of each peptide concentration were plotted against the plateau mP value, and an IC50 curve was fit.

T1 sequence (Q95460 with tags, fused parts or gaps G138C/C283S): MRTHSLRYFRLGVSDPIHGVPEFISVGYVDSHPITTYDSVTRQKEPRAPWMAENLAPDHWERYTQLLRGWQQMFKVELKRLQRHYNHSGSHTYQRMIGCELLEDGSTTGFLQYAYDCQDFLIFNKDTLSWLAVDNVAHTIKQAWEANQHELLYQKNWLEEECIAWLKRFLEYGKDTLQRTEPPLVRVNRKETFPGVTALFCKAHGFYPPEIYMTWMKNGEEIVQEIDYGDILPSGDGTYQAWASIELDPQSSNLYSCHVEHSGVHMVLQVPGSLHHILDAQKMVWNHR
T1 sequence (as listed by the source partner): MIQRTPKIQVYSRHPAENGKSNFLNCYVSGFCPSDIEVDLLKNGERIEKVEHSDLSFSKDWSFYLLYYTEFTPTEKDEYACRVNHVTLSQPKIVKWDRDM

Row | Molecule | relative binding affinities (IC50) to MR1 (MR1) | IC50, open compared to WT [1]
1 | O=C(O)C1=C[C@@H](O)[C@@H](O)[C@H](O)C1 [SKA, shikimic acid] | low-millimolar | –
2 | O=C(O)Cc1ccccc1Nc1c(Cl)cccc1Cl [DCF, diclofenac, reference compound] | low-millimolar | –
3 | ALIDVFHQY | – | same IC50
4 | O=C(O)C1=CC(=O)[C@@H](O)[C@H](O)C1 [3DA, 3-Dehydroshikimic acid] | low-millimolar | –
5 | O=c1ccn([C@@H]2O[C@H](COP(=O)(O)O)[C@@H](O)[C@H]2O)c(=O)[nH]1 [UMP, Uridine 5′-monophosphate] | low-millimolar | –
